Values belong to the compound of their own block, whether it stands above or below them. Activity calls are given as the source filed them.
Experiments:
[1] = target: T1, Cysteine protease ATG4B (Homo sapiens, UniProt Q9Y4P1); format: functional;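 note: Fluorescence-based dose-response confirmation assay measuring inhibition of ATG4B activity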
T1 sequence (Q9Y4P1 whole entry): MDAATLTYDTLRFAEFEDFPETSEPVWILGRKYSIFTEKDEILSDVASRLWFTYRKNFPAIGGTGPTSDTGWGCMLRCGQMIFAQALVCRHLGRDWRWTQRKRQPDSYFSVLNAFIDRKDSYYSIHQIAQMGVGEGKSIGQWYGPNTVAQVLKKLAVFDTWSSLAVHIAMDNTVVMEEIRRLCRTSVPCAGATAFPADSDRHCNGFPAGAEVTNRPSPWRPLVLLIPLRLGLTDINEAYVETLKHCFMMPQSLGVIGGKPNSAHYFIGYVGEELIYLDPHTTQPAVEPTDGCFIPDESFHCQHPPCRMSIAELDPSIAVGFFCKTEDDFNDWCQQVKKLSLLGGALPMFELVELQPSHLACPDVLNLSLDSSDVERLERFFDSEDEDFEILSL

[2] = target: Phospholipase A2 (Homo sapiens, UniProt P04054); format: functional;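 note: confirmatory dose-response counterscreen on phospholipase A2, testing hits that came from an ultra-high-throughput screen for ATG4B inhibitors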
[3] = target: T2, SUMO-activating enzyme (Homo sapiens, UniProt Q9UBT2); experiment: blockers of UBC9-mediated SUMO conjugation – biochemical, AlphaScreen, SUMOylation inhibitor project, confirmation (AID 2018); format: functional
[4] = target: T2, SUMO-activating enzyme; experiment: blockers of SAE1/SAE2–UBC9 SUMO transfer – biochemical, HTRF, uHTS, primary screen (AID 2006); format: protein-complex assay
[5] = target: Induced myeloid leukemia cell differentiation protein Mcl-1 (Homo sapiens, UniProt Q07820); format: functional
[6] = target: DNA (cytosine-5)-methyltransferase 1 (Homo sapiens, UniProt P26358); experiment: inhibition of DNA methylation by DNMT1 – biochemical, fluorescent molecular beacon, confirmation (AID 602386); format: functional
[7] = target: T3, Caspase-6 (Homo sapiens, UniProt P55212); experiment: inhibition of CASP6 peptide cleavage – biochemical, VEID-R110 fluorescence, cherry-pick, dose response (AID 720632)
T3 sequence (P55212 whole entry): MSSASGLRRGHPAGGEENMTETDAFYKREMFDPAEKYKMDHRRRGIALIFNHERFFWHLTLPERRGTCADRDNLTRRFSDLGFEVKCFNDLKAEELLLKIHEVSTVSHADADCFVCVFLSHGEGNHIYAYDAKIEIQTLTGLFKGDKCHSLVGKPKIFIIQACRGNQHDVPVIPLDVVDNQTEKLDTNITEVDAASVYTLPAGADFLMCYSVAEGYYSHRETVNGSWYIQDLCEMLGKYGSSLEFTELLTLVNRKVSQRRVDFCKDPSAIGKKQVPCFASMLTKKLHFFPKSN

[8] = target: Beta-2 adrenergic receptor (Homo sapiens, UniProt P07550); experiment: ADRB2 activation measured by internalization – cell-based, FAP fluorogen, flow cytometry, cherry pick 1, dose response (AID 588763); format: functional
[9] = NIH-3T3 fibroblast cytotoxicity, dose response, cytotoxicity control, cell-based, fluorescence, Alamar Blue, secondary assay (AID 2327); format: functional;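 note: NIH-3T3 mouse fibroblasts cultured with fluconazole at 8 µg/mL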
[10] = viability of uninfected HEp-2 cells – cell-based, HTS, cytotoxicity control for RSV inhibitor project, dose response (AID 2410); format: functional; details: human respiratory syncytial virus
[11] = fluconazole-exposed Candida albicans growth modulators – fluorescence, retest, confirmation (AID 2467); format: functional, cell-based
[12] = target: T4, Caspase-3 (Homo sapiens, UniProt P42574); format: functional;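 note: Dose-response selectivity test against caspase-3 for candidate inhibitors of sentrin-specific proteases (SENPs)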
T4 sequence (P42574 whole entry): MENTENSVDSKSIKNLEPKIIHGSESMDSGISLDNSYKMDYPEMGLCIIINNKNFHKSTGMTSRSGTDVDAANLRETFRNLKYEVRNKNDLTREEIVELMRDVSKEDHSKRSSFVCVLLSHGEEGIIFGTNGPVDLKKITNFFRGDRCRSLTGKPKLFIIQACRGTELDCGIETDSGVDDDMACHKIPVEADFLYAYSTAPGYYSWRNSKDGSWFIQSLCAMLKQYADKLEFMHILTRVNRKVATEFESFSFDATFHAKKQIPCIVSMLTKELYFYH

[13] = target: T5, Sentrin-specific protease 7 (Homo sapiens, UniProt Q9BQF6); format: functional;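 note: Luminescence-based dose-response confirmation of ultra-high-throughput screening hits, measuring inhibition of SENP7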
T5 sequence (Q9BQF6 whole entry): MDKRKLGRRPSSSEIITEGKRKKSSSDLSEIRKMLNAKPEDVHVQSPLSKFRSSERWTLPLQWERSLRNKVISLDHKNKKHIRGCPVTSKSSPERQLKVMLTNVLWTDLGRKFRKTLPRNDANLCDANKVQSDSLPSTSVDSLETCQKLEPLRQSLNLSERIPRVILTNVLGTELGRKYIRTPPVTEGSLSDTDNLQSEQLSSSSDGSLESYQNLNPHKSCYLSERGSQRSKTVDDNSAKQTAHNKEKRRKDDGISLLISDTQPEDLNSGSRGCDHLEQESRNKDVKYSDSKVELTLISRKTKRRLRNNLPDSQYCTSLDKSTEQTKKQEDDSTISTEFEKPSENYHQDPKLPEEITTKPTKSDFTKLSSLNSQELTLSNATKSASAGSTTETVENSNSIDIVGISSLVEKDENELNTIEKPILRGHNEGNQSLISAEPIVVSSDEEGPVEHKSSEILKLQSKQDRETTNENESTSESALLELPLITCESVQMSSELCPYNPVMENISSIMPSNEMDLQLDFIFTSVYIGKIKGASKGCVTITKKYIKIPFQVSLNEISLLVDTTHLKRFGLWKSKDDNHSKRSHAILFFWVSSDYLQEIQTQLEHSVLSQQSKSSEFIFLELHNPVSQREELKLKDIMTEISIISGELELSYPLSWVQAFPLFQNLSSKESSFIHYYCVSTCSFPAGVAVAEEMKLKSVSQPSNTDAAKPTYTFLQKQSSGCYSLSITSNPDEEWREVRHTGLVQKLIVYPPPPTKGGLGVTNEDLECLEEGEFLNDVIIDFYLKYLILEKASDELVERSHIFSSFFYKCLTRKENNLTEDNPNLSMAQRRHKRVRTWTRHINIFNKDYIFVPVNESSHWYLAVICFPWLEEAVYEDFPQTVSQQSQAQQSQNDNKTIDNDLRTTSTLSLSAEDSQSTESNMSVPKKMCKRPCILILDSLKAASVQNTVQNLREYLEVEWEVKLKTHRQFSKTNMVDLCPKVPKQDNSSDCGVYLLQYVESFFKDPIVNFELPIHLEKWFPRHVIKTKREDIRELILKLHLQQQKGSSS

[14] = target: T6, Sentrin-specific protease 6 (Homo sapiens, UniProt Q9GZR1); format: functional;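 note: Luminescence-based dose-response confirmatory assay of SENP6 inhibition, following up an ultra-high-throughput screen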
T6 sequence (Q9GZR1 whole entry): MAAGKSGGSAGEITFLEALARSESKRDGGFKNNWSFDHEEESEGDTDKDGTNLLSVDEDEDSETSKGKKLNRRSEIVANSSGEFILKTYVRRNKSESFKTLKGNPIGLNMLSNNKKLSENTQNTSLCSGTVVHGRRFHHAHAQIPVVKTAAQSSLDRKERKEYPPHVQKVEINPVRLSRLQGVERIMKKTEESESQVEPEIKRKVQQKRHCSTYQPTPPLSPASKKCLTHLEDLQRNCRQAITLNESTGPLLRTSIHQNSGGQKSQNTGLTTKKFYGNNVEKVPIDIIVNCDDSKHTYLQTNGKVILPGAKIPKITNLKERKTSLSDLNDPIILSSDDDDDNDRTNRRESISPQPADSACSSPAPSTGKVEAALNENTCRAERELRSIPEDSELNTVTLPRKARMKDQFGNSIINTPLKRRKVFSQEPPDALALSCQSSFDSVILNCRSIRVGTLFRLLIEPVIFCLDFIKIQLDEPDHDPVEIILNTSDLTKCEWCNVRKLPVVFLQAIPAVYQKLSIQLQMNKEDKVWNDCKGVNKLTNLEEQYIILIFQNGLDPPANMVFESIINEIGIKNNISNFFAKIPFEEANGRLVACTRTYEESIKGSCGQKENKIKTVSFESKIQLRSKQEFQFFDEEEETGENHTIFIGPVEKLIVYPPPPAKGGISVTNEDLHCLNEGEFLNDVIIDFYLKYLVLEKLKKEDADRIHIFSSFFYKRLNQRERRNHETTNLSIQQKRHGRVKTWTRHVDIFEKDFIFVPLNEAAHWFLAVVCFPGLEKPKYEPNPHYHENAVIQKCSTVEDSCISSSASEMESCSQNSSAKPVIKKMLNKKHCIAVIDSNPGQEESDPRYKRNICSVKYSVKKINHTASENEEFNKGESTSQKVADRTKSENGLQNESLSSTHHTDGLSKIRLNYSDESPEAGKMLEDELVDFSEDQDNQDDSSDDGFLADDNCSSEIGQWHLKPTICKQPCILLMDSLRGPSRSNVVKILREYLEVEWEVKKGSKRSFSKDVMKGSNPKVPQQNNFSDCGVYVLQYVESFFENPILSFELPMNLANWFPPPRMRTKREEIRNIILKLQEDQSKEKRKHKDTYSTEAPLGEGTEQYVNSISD

[15] = target: FAD-linked sulfhydryl oxidase ALR (Homo sapiens, UniProt P55789); experiment: ALR-catalysed DTT oxidation blockers – biochemical, H2O2 detection, luminescence, cherry-pick, dose response (AID 493248)
[16] = target: T7, Sentrin-specific protease 8 (Homo sapiens, UniProt Q96LD8); format: functional;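 note: luminescence read-out of SENP8 inhibition, dose-response confirmation following an ultra-high-throughput screen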
T7 sequence (Q96LD8 whole entry): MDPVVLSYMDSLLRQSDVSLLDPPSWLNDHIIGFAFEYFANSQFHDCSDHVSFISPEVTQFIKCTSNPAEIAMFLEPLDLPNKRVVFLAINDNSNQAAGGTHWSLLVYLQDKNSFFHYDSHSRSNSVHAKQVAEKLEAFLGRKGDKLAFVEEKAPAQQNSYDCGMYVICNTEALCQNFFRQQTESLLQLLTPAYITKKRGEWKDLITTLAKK

[17] = test system: HeLa; experiment: ATP-based viability loss in HeLa cells – cell-based, CellTiter-Glo luminescence, cherry-pick samples, cytotoxicity control for MITF activator project, dose response (AID 540259); format: functional; details: Homo sapiens

Chain of Phospholipase A2 (P04054 whole entry): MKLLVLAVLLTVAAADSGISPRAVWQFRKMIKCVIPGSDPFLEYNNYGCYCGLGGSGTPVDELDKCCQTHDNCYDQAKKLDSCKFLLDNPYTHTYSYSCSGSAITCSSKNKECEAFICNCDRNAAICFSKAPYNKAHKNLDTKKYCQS
T2 sequence (Q9UBE0 whole entry): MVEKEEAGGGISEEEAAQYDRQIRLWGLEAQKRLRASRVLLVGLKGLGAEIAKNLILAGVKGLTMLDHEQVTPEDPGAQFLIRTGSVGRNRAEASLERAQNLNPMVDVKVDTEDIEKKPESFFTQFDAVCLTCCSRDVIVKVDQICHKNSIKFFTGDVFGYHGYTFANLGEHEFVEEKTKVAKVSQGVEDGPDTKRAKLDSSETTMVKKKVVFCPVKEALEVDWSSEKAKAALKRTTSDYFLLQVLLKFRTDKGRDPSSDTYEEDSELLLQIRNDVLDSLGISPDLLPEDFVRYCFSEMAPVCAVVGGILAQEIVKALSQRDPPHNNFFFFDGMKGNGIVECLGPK
T2 sequence (Q9UBT2 whole entry): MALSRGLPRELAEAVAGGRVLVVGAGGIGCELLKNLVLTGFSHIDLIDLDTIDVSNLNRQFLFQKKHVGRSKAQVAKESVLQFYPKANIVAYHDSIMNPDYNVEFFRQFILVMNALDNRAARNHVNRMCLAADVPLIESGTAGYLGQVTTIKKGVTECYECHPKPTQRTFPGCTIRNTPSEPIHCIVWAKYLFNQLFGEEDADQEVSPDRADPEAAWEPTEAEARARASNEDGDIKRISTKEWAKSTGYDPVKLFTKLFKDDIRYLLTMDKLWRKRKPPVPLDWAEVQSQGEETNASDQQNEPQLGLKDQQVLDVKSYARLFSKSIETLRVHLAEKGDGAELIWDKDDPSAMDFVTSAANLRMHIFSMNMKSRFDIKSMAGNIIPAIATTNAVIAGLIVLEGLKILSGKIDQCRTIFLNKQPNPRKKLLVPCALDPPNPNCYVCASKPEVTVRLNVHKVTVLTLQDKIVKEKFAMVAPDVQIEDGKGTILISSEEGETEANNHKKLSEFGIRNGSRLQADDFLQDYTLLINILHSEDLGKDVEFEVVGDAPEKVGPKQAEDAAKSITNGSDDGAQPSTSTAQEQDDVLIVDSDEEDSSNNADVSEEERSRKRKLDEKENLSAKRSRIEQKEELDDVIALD
Chain of DNA (cytosine-5)-methyltransferase 1 (P26358 whole entry): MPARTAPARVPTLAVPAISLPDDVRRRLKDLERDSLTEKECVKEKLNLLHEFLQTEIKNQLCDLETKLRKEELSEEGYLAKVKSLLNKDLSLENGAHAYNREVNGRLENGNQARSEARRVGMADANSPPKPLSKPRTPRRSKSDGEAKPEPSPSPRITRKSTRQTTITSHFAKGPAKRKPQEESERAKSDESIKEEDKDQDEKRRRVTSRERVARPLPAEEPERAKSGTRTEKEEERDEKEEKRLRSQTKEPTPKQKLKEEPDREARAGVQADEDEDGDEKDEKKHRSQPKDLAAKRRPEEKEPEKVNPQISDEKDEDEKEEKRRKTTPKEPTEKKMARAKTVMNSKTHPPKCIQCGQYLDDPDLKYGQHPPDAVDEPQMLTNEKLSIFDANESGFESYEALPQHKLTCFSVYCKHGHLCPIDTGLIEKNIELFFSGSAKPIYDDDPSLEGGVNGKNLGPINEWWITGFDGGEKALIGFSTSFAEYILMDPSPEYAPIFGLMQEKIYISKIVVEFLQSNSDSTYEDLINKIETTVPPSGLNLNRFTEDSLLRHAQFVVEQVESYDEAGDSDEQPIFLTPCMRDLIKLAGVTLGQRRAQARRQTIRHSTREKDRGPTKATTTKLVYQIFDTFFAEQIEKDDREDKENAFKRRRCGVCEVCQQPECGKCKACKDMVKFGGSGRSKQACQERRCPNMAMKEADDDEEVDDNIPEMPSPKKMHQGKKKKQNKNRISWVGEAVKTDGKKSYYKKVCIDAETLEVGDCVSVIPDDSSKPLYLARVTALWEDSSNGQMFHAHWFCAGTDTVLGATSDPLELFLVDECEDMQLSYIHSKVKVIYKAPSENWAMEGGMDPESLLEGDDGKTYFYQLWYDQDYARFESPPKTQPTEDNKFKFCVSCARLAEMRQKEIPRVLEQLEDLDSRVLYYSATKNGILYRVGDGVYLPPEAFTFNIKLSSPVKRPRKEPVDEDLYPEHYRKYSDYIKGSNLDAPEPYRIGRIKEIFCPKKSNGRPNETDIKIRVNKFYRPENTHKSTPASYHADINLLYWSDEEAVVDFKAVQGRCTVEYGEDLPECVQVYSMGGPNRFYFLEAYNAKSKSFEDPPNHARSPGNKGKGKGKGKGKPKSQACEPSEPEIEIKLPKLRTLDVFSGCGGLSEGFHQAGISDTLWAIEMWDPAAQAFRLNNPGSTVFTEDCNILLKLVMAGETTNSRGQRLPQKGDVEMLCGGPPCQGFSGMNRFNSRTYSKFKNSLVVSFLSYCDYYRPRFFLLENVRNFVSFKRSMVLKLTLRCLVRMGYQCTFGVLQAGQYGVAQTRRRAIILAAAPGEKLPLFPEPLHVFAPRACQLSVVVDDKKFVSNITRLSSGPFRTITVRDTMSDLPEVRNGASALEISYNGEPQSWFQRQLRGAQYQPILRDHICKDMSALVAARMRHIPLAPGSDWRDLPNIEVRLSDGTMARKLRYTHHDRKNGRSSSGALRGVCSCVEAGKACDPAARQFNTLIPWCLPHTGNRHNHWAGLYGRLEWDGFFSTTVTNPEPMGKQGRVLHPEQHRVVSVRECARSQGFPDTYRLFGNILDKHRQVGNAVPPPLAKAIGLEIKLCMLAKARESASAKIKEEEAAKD
Chain of Beta-2 adrenergic receptor (P07550 whole entry): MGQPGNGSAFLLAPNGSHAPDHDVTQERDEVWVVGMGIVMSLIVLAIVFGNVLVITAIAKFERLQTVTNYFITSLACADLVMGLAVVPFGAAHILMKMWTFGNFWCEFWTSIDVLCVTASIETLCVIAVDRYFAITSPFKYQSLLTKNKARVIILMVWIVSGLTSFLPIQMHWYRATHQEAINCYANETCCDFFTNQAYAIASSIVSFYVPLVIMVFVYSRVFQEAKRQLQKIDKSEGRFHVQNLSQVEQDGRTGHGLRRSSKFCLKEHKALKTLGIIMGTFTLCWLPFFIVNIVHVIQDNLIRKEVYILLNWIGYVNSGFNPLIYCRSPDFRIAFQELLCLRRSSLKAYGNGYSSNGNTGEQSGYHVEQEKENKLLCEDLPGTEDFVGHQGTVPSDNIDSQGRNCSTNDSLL
Chain of FAD-linked sulfhydryl oxidase ALR (P55789 whole entry): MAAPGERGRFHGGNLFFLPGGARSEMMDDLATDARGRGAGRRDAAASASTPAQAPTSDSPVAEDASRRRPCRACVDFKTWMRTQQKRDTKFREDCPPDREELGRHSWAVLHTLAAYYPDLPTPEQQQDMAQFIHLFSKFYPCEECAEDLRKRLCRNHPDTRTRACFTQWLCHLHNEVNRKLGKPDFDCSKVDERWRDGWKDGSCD
Chain of Induced myeloid leukemia cell differentiation protein Mcl-1 (Q07820 whole entry): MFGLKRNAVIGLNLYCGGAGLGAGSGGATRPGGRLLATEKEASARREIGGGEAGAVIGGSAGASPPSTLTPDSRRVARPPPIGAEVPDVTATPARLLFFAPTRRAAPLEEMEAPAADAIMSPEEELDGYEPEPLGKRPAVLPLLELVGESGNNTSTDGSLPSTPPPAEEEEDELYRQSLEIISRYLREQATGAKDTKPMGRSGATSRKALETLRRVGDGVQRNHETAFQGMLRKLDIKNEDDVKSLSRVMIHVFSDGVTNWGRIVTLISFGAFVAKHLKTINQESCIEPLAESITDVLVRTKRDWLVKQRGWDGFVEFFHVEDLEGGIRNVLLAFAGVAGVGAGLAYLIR

- IC50 [1]: 11 µM (active)
- IC50 [2]: 12.6 µM (active)
Structure (SMILES): Cc1nc2c(C(=O)NCc3ccccc3Cl)cnn2c(O)c1Cl

- IC50 [3]: 1.65 µM (active)
- IC50 [4]: 16.8 µM (active)
- IC50 [5]: 2.27 µM (active)
- IC50 [1]: 4.31 µM (active)
- IC50 [2]: 5.31 µM (active)
- IC50 [6]: 5.34 µM (active)
- AC50 [7]: 24.2 µM (active)
Structure (SMILES): CN(c1ccccc1)c1ccc(/C=C(\CCC(=O)O)c2nc3ccccc3s2)cc1[N+](=O)[O-]

- EC50 [8]: 0.0813 µM (active)
Structure (SMILES): Cc1ccc(CS(=O)(=O)c2nc3c(c(N(C)C)n2)CCCC3)cc1

Structure (SMILES): CC(=O)Nc1cccc(-c2csc(Nc3ccc(C)cn3)n2)c1
- EC50 [9]: 25.8 µM (active)
- CC50 [10]: > 50 µM (active)
- EC50 [11]: 4.04 µM (active)
- IC50 [12]: 39.7 µM (active)
- IC50 [13]: 4.13 µM (active)
- IC50 [14]: 12.7 µM (active)
- AC50 [15]: 0.169 µM (active)
- IC50 [16]: 17.5 µM (active)
- AC50 [17]: 40 µM (active)

Source: ChEMBL document CHEMBL1201862, “PubChem BioAssay data set” (2004)
